# US9901592B2 (priority 2008, dated 2018)
# Like-named read-outs stand apart in the source and are kept apart here.
# Columns and labels:
# Type in all cases: cell-based
# [1] = test system: S. pneumoniae; test: microbe, parasite or virus in culture; settings: for MIC: Streptococcus pneumoniae
# [2] = test system: S. pneumoniae
# [3] = test system: S. pyogenes; settings: strain 2132 Macrolide-S
# [4] = test system: S. pyogenes; parameters: MIC: unit not given beside the values; settings: for MIC50 / MIC90: Streptococcus pyogenes, Macr-R
smiles,measurement,setting,value
"CC[C@H]1OC(=O)[C@H](C)[C@@H](O[C@H]2C[C@@](C)(OC)[C@@H](O)[C@H](C)O2)[C@H](C)[C@@H](O[C@@H]2O[C@H](C)C[C@H](N(C)C)[C@H]2O)[C@](C)(O)C[C@@H](C)CN(C)[C@H](C)[C@@H](O)[C@]1(C)O [AZI, azithromycin]",strains with resistant clones / strains tested,[1]; S. pneumoniae,3/4
same,MIC,"[1]; read-out: Initial MIC, strain 1077 Macrolide-S, parent",0.03 mg/L
same,MIC,"[1]; read-out: Initial MIC, strain 1635 Macrolide-R [erm(A)], parent",2 mg/L
same,MIC,"[1]; read-out: Initial MIC, strain 3665 Macrolide-R [mef(A)], parent",8 mg/L
same,MIC,"[1]; read-out: Initial MIC, strain 7127 Macrolide-S [S20N in L4, A105V in L22], parent",0.06 mg/L
same,MIC,"[1]; read-out: MIC of parents of resistant clones, S. pneumoniae (CEM-101: 7 strains)",0.03 to 2 mg/L
same,MIC,"[1]; read-out: Parental MICs, S. pneumoniae, 8 strains with varying resistotypes",0.03 to 8 mg/L
same,MIC,"[1]; read-out: Selected Resistance MIC, strain 3665 Macrolide-R [mef(A)], after serial passages in the drug",16 mg/L
same,MIC,"[1]; read-out: Selected Resistance MIC, strain 7127 Macrolide-S [S20N in L4, A105V in L22], after serial passages in the drug",0.5 mg/L
same,days until resistant clones (MIC increase),"[1]; daily passages, min. 14, max. 50",14 to 29 days
same,Retest MIC after 10 Antibiotic-free Subcultures,"[1]; strain 24 Macrolide-R [erm(B)], clone selected with CEM-101",>64 mg/L
same,Retest MIC after 10 Antibiotic-free Subcultures,"[1]; strain 24 Macrolide-R [erm(B)], clone selected with TEL",>64 mg/L
same,Retest MIC after 10 Antibiotic-free Subcultures,"[1]; strain 1076 Macrolide-R [erm(B)&mef(A)], clone selected with CEM-101",>64 mg/L
same,Retest MIC after 10 Antibiotic-free Subcultures,"[1]; strain 1076 Macrolide-R [erm(B)&mef(A)], clone selected with TEL",>64 mg/L
same,Retest MIC after 10 Antibiotic-free Subcultures,"[1]; strain 1077 Macrolide-S, clone selected with AZI",>64 mg/L
same,Retest MIC after 10 Antibiotic-free Subcultures,"[1]; strain 1077 Macrolide-S, clone selected with CEM-101",0.03 mg/L
same,Retest MIC after 10 Antibiotic-free Subcultures,"[1]; strain 1077 Macrolide-S, clone selected with CLN",>64 mg/L
same,Retest MIC after 10 Antibiotic-free Subcultures,"[1]; strain 1077 Macrolide-S, clone selected with TEL",>64 mg/L
same,Retest MIC after 10 Antibiotic-free Subcultures,"[1]; strain 1635 Macrolide-R [erm(A)], clone selected with AZI",>64 mg/L
same,Retest MIC after 10 Antibiotic-free Subcultures,"[1]; strain 1635 Macrolide-R [erm(A)], clone selected with CEM-101",4 mg/L
same,Retest MIC after 10 Antibiotic-free Subcultures,"[1]; strain 1635 Macrolide-R [erm(A)], clone selected with CLN",4 mg/L
same,Retest MIC after 10 Antibiotic-free Subcultures,"[1]; strain 1635 Macrolide-R [erm(A)], clone selected with CLR",>64 mg/L
same,Retest MIC after 10 Antibiotic-free Subcultures,"[1]; strain 2686 Macrolide-R [L4 mutation], clone selected with CEM-101",>64 mg/L
same,Retest MIC after 10 Antibiotic-free Subcultures,"[1]; strain 2686 Macrolide-R [L4 mutation], clone selected with CLR",>64 mg/L
same,Retest MIC after 10 Antibiotic-free Subcultures,"[1]; strain 2686 Macrolide-R [L4 mutation], clone selected with TEL",>64 mg/L
same,Retest MIC after 10 Antibiotic-free Subcultures,"[1]; strain 3009 Macrolide-R [23SrRNA mutation], clone selected with CEM-101",>64 mg/L
same,Retest MIC after 10 Antibiotic-free Subcultures,"[1]; strain 3009 Macrolide-R [23SrRNA mutation], clone selected with CLR",>64 mg/L
same,Retest MIC after 10 Antibiotic-free Subcultures,"[1]; strain 3665 Macrolide-R [mef(A)], clone selected with CEM-101",16 mg/L
same,Retest MIC after 10 Antibiotic-free Subcultures,"[1]; strain 3665 Macrolide-R [mef(A)], clone selected with CLR",8 mg/L
same,Retest MIC after 10 Antibiotic-free Subcultures,"[1]; strain 3665 Macrolide-R [mef(A)], clone selected with TEL",4 mg/L
same,Retest MIC after 10 Antibiotic-free Subcultures,"[1]; strain 7127 Macrolide-S [S20N in L4, A105V in L22], clone selected with AZI",1 mg/L
same,Retest MIC after 10 Antibiotic-free Subcultures,"[1]; strain 7127 Macrolide-S [S20N in L4, A105V in L22], clone selected with CEM-101",0.06 mg/L
same,Retest MIC after 10 Antibiotic-free Subcultures,"[1]; strain 7127 Macrolide-S [S20N in L4, A105V in L22], clone selected with CLN",0.03 mg/L
same,Retest MIC after 10 Antibiotic-free Subcultures,"[1]; strain 7127 Macrolide-S [S20N in L4, A105V in L22], clone selected with CLR",>64 mg/L
same,Retest MIC after 10 Antibiotic-free Subcultures,"[1]; strain 7127 Macrolide-S [S20N in L4, A105V in L22], clone selected with TEL",0.06 mg/L
same,single step mutation frequency,"[2]; strain 1077 Macrolide-S, 2 × MIC",7.2 × 10^−9
same,single step mutation frequency,"[2]; strain 1077 Macrolide-S, 4 × MIC",<1.9 × 10^−10
same,single step mutation frequency,"[2]; strain 1077 Macrolide-S, 8 × MIC",<1.9 × 10^−10
same,single step mutation frequency,"[2]; strain 1635 Macrolide-R [erm(A)], 2 × MIC",<2.0 × 10^−10
same,single step mutation frequency,"[2]; strain 1635 Macrolide-R [erm(A)], 4 × MIC",<2.0 × 10^−10
same,single step mutation frequency,"[2]; strain 1635 Macrolide-R [erm(A)], 8 × MIC",<2.0 × 10^−10
same,single step mutation frequency,"[2]; strain 7127 Macrolide-S [S20N in L4, A105V in L22], 2 × MIC",<2.0 × 10^−10
same,single step mutation frequency,"[2]; strain 7127 Macrolide-S [S20N in L4, A105V in L22], 4 × MIC",<2.0 × 10^−10
same,single step mutation frequency,"[2]; strain 7127 Macrolide-S [S20N in L4, A105V in L22], 8 × MIC",<2.0 × 10^−10
same,single step mutation frequency,[3]; 2 × MIC,<1.0 × 10^−10
same,single step mutation frequency,[3]; 4 × MIC,<1.0 × 10^−10
same,single step mutation frequency,[3]; 8 × MIC,<1.0 × 10^−10
same,MIC,[4]; MAC-R S. pyogenes 3029,(>64)
same,MIC50,"[4]; S. pyogenes TEL R, 10 strains",> 32 mg/L
same,MIC90,"[4]; S. pyogenes TEL R, 10 strains",> 32 mg/L
same,MIC50,"[4]; S. pyogenes TEL S, 30 strains",> 32 mg/L
same,MIC90,"[4]; S. pyogenes TEL S, 30 strains",> 32 mg/L
